# Experimental data reported in patent publication US20220323383A1, “SMALL-MOLECULAR ADJUVANTS AND IMPLEMENTATIONS THEREOF” (JAWAHARLAL NEHRU CENTRE FOR ADVANCED SCIENTIFIC RESEARCH, priority 2019, published 2022).
# Where a name gives a salt, the structure may show the parent alone.
# Experiments:
# Type in all cases: cell-based
# A. baumannii R674 [1] = experiment: Individual antibacterial activity (MIC) of adjuvants; settings: Acinetobacter baumannii, R674, read-out: MIC against clinical isolates of bacteria
# Method: (§1) The combination efficacy with antibiotics from different classes and individual antibacterial activity of the synthesized adjuvants was evaluated against the above mentioned MDR and NDM-1 strains of Gram-negative bacteria. All the bacteria were grown in peptone. The bacterial samples were freeze dried and stored at −80° C. 3 μl of these stocks were added to 3 mL of peptone and the culture was grown for 6 h at 37° C. prior to the experiments.
# (§2) All synthesized compounds were assayed for their antibacterial activity in combination with antibiotics in a modified chequerboard micro-dilution broth format. Stock solutions were made by serially diluting the compounds using autoclaved millipore water. The bacterial freeze dried stock samples were stored at −80° C. About 3 μL of these stocks were added to about 3 mL of the respective broth and the culture was grown for about 6 h at about 37° C. with prior to the experiments. This 6 h grown culture gives about 10^8 cfu/mL in case of A. baumannii R674, P. aeruginosa R590, E. coli R3336 and K. pneumoniae R3934 which were determined by spread plating method. This 6 h grown culture was diluted to give effective cell concentration of 10^5 cfu/mL, and then used for the chequerboard assay. Adjuvants and antibiotics were serially diluted in two-fold, in sterile millipore water. 25 μL of these serial dilutions of the antibiotics and 25 μL of compounds were added to the wells of 96 well plate followed by the addition of about 150 μL of bacterial solution (˜10^5 cfu/mL). The plates were then incubated at about 37° C., 150 rpm in the incubator and O.D at 600 nm was recorded at 24 h using TECAN (Infinite series, M200 pro) Plate Reader. The wells with similar OD as the media control contained the required concentration of the antibiotic and adjuvant for antibacterial efficacy. The potentiation ability of the adjuvants was determined by calculating the potentiation factor and the Fractional Inhibitory concentration (FIC) index. Fractional Inhibitory Concentration (FIC) is expressed as, FIC=[X]/MICX, where [X] is the lowest inhibitory concentration of antibiotic in the presence of the adjuvant. Whereas FIC index is expressed as, FICI=FICantibiotic+FICadjuvant. The values of FIC index give an insight about the nature of the combination. Potentiation factor which means fold-reduction in the MIC of the antibiotic, when used in combination with the adjuvant was also determined. Potentiation factor=[Minimum inhibitory concentration (MIC) of antibiotic in absence of adjuvant]/[MIC of antibiotic in presence of adjuvant]. […] The combination efficacies of adjuvants with various antibiotics are furnished in Table 1. It should be noted that various other resistant strains of bacteria (Gram-positive and Gram-negative) can be tested with a number of other antibiotics to check the potentiation capacity of the adjuvants.
# E. coli R3336 [2] = experiment: as above; settings: Escherichia coli, R3336, read-out: MIC against clinical isolates of bacteria
# Method: as §1, §2
# P. aeruginosa R590 [3] = experiment: as above; settings: Pseudomonas aeruginosa, R590, read-out: MIC against clinical isolates of bacteria
# Method: as §1, §2
# K. pneumoniae R3934 [4] = experiment: as above; settings: Klebsiella pneumoniae, R3934, read-out: MIC against clinical isolates of bacteria
# Method: as §1, §2
# A. baumannii R674 [5] = experiment: Chequerboard combination efficacy of adjuvant with antibiotics
# Method: (§3) All the solvents were of reagent grade, which were distilled and dried before its use. All the reagents were purchased from Sigma-Aldrich, Alfa-Aesar, S.D. Fine, Avra and Spectrochem, and were used without further purification. Analytical thin layer chromatography (TLC) was performed on E. Merck TLC plates pre-coated with silica gel 60 F254 and visualization was carried out using UV light and Iodine. Column chromatography was performed on silica gel (60-120 mesh) using different ratio of chloroform and methanol solvent system. Nuclear magnetic resonance spectra were recorded on Bruker (AV-400) 400 MHz spectrometer in deuterated solvents. Mass spectra were obtained using 6538-UHD Accurate mass Q-TOF LC-MS instrument. For optical density measurement during bacteriology experiments, Tecan Infinite Pro series M200 Microplate Reader was used. Bacterial strains, A. baumannii (R674), P. aeruginosa (R590), E. coli (R3336) and K. pneumoniae (R3934) were used for the studies.
# as §1, §2
# E. coli R3336 [6] = experiment: as above
# Method: as §3, §1, §2
# P. aeruginosa R590 [7] = experiment: as above; settings: P. aeruginosa R590
# Method: as §3, §1, §2
# K. pneumoniae R3934 [8] = experiment: as above
# Method: as §3, §1, §2
smiles,measurement,setting,value
"NCCCC[C@H](N)C(=O)NCCCCCCN(CCCCCCNC(=O)[C@@H](N)CCCCN)C(=O)CC(c1ccccc1)c1ccccc1 [Compound 14, N,N-bis-[(6-(^LLys)amido)hexyl] 3,3-diphenyl propanamide tetrakis trifluoroacetate]",MIC,A. baumannii R674 [1],> 512 µg/mL
same,MIC,E. coli R3336 [2],> 512 µg/mL
same,MIC,P. aeruginosa R590 [3],> 512 µg/mL
same,MIC,K. pneumoniae R3934 [4],> 512 µg/mL
same,MIC of antibiotic in presence of adjuvant,A. baumannii R674 [5]; antibiotic Ampicillin,No potentiation
same,FICI,A. baumannii R674 [5]; antibiotic Ciprofloxacin,<0.281
same,MIC of antibiotic in presence of adjuvant,A. baumannii R674 [5]; antibiotic Ciprofloxacin,64 µg/mL
same,Potentiation factor,A. baumannii R674 [5]; antibiotic Ciprofloxacin,4
same,FICI,A. baumannii R674 [5]; antibiotic Erythromycin,<0.0625
same,MIC of antibiotic in presence of adjuvant,A. baumannii R674 [5]; antibiotic Erythromycin,16 µg/mL
same,Potentiation factor,A. baumannii R674 [5]; antibiotic Erythromycin,32
same,FICI,A. baumannii R674 [5]; antibiotic Fusidic acid,<0.012
same,MIC of antibiotic in presence of adjuvant,A. baumannii R674 [5]; antibiotic Fusidic acid,<0.5 µg/mL
same,Potentiation factor,A. baumannii R674 [5]; antibiotic Fusidic acid,>128
same,FICI,A. baumannii R674 [5]; antibiotic Linezolid,<0.156
same,MIC of antibiotic in presence of adjuvant,A. baumannii R674 [5]; antibiotic Linezolid,32 µg/mL
same,Potentiation factor,A. baumannii R674 [5]; antibiotic Linezolid,8
same,FICI,A. baumannii R674 [5]; antibiotic Minocycline,<0.129
same,MIC of antibiotic in presence of adjuvant,A. baumannii R674 [5]; antibiotic Minocycline,1 µg/mL
same,Potentiation factor,A. baumannii R674 [5]; antibiotic Minocycline,8
same,FICI,A. baumannii R674 [5]; antibiotic Rifampicin,<0.017
same,MIC of antibiotic in presence of adjuvant,A. baumannii R674 [5]; antibiotic Rifampicin,<0.125 µg/mL
same,Potentiation factor,A. baumannii R674 [5]; antibiotic Rifampicin,>512
same,MIC of antibiotic in presence of adjuvant,A. baumannii R674 [5]; antibiotic Streptomycin,No potentiation
same,FICI,A. baumannii R674 [5]; antibiotic Tetracycline,<0.25
same,MIC of antibiotic in presence of adjuvant,A. baumannii R674 [5]; antibiotic Tetracycline,16 µg/mL
same,Potentiation factor,A. baumannii R674 [5]; antibiotic Tetracycline,8
same,FICI,A. baumannii R674 [5]; antibiotic Vancomycin,<0.3125
same,MIC of antibiotic in presence of adjuvant,A. baumannii R674 [5]; antibiotic Vancomycin,16 µg/mL
same,Potentiation factor,A. baumannii R674 [5]; antibiotic Vancomycin,4
same,FICI,E. coli R3336 [6]; antibiotic Fusidic acid,<0.0625
same,MIC of antibiotic in presence of adjuvant,E. coli R3336 [6]; antibiotic Fusidic acid,16 µg/mL
same,Potentiation factor,E. coli R3336 [6]; antibiotic Fusidic acid,>32
same,MIC of antibiotic in presence of adjuvant,E. coli R3336 [6]; antibiotic Linezolid,No potentiation
same,FICI,E. coli R3336 [6]; antibiotic Minocycline,<0.0156
same,MIC of antibiotic in presence of adjuvant,E. coli R3336 [6]; antibiotic Minocycline,<0.25 µg/mL
same,Potentiation factor,E. coli R3336 [6]; antibiotic Minocycline,>128
same,FICI,E. coli R3336 [6]; antibiotic Rifampicin,<0.047
same,MIC of antibiotic in presence of adjuvant,E. coli R3336 [6]; antibiotic Rifampicin,4 µg/mL
same,Potentiation factor,E. coli R3336 [6]; antibiotic Rifampicin,128
same,FICI,P. aeruginosa R590 [7]; antibiotic Chloramphenicol,<0.3125
same,MIC of antibiotic in presence of adjuvant,P. aeruginosa R590 [7]; antibiotic Chloramphenicol,32 µg/mL
same,Potentiation factor,P. aeruginosa R590 [7]; antibiotic Chloramphenicol,4
same,FICI,P. aeruginosa R590 [7]; antibiotic Colistin,<0.266
same,MIC of antibiotic in presence of adjuvant,P. aeruginosa R590 [7]; antibiotic Colistin,0.25 µg/mL
same,Potentiation factor,P. aeruginosa R590 [7]; antibiotic Colistin,4
same,MIC of antibiotic in presence of adjuvant,P. aeruginosa R590 [7]; antibiotic Daptomycin,No potentiation
same,FICI,P. aeruginosa R590 [7]; antibiotic Fusidic acid,<0.012
same,MIC of antibiotic in presence of adjuvant,P. aeruginosa R590 [7]; antibiotic Fusidic acid,<0.25 µg/mL
same,Potentiation factor,P. aeruginosa R590 [7]; antibiotic Fusidic acid,>256
same,FICI,P. aeruginosa R590 [7]; antibiotic Linezolid,<0.156
same,MIC of antibiotic in presence of adjuvant,P. aeruginosa R590 [7]; antibiotic Linezolid,32 µg/mL
same,Potentiation factor,P. aeruginosa R590 [7]; antibiotic Linezolid,8
same,FICI,P. aeruginosa R590 [7]; antibiotic Minocycline,<0.156
same,MIC of antibiotic in presence of adjuvant,P. aeruginosa R590 [7]; antibiotic Minocycline,1 µg/mL
same,Potentiation factor,P. aeruginosa R590 [7]; antibiotic Minocycline,8
same,FICI,P. aeruginosa R590 [7]; antibiotic Rifampicin,<0.016
same,MIC of antibiotic in presence of adjuvant,P. aeruginosa R590 [7]; antibiotic Rifampicin,<0.125 µg/mL
same,Potentiation factor,P. aeruginosa R590 [7]; antibiotic Rifampicin,>1024
same,FICI,P. aeruginosa R590 [7]; antibiotic Tetracycline,<0.1875
same,MIC of antibiotic in presence of adjuvant,P. aeruginosa R590 [7]; antibiotic Tetracycline,16 µg/mL
same,Potentiation factor,P. aeruginosa R590 [7]; antibiotic Tetracycline,16
same,FICI,K. pneumoniae R3934 [8]; antibiotic Fusidic acid,<0.1289
same,MIC of antibiotic in presence of adjuvant,K. pneumoniae R3934 [8]; antibiotic Fusidic acid,2 µg/mL
same,Potentiation factor,K. pneumoniae R3934 [8]; antibiotic Fusidic acid,256
same,FICI,K. pneumoniae R3934 [8]; antibiotic Linezolid,<0.1328
same,MIC of antibiotic in presence of adjuvant,K. pneumoniae R3934 [8]; antibiotic Linezolid,64 µg/mL
same,Potentiation factor,K. pneumoniae R3934 [8]; antibiotic Linezolid,>8
same,FICI,K. pneumoniae R3934 [8]; antibiotic Minocycline,<0.1328
same,MIC of antibiotic in presence of adjuvant,K. pneumoniae R3934 [8]; antibiotic Minocycline,0.5 µg/mL
same,Potentiation factor,K. pneumoniae R3934 [8]; antibiotic Minocycline,128
same,FICI,K. pneumoniae R3934 [8]; antibiotic Rifampicin,<0.126
same,MIC of antibiotic in presence of adjuvant,K. pneumoniae R3934 [8]; antibiotic Rifampicin,0.5 µg/mL
same,Potentiation factor,K. pneumoniae R3934 [8]; antibiotic Rifampicin,1024
